Data taken from US9533952B2, “N-prop-2-ynyl carboxamide derivatives and their use as TRPA1 antagonists” (Orion Corporation, priority 2012, dated 2017).

Molecular target: TRPA1 (Homo sapiens, UniProt O75762)
Experiment: Determination of TRPA1 activity in vitro (TRPA1 antagonism in vitro)
Format: cell-based
Conditions: procedure of Wei et al., Anesthesiology 111 (2009) 147-154

Sequence of TRPA1 (O75762 whole entry): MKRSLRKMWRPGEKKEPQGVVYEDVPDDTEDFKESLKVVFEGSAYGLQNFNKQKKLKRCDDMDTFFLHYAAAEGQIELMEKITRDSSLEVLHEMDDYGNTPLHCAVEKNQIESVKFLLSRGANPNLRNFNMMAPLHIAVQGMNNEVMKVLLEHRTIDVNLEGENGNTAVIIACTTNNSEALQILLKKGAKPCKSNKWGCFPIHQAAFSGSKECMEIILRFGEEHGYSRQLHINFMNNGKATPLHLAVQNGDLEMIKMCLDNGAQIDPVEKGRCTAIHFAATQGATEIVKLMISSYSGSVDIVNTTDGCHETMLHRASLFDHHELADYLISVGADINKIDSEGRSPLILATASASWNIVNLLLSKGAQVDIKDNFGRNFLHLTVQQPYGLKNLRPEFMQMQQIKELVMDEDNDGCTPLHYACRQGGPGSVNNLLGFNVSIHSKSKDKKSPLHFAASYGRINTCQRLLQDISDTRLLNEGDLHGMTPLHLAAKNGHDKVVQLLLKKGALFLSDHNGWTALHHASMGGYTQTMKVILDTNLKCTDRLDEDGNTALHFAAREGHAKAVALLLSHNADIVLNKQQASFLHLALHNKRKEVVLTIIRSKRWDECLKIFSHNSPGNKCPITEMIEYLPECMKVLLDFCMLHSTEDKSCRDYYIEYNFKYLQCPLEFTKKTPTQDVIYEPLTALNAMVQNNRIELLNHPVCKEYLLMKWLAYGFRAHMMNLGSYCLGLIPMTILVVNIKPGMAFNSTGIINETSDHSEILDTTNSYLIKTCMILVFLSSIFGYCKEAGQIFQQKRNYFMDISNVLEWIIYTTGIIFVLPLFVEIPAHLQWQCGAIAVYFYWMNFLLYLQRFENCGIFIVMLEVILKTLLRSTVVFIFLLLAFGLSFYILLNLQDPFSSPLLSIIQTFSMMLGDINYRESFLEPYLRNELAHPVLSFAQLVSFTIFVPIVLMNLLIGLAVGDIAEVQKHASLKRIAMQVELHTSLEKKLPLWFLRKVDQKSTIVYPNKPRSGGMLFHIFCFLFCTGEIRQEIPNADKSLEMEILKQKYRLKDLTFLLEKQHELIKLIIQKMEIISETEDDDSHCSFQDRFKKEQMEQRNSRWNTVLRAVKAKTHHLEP

SMILES | IC50 [nM]
C#CC(C)(C)NC(=O)c1ccccc1NCC(C)C [Example 80, 2-(Isobutylamino)-N-(2-methylbut-3-yn-2-yl)benzamide] | 1300
C#CC(C)(C)NC(=O)c1cc(F)c(F)cc1NC1CCC1 [Example 17, 2-(Cyclobutylamino)-4,5-difluoro-N-(2-methylbut-3-yn-2-yl)benzamide] | 1200
C#CC(C)(C)NC(=O)c1ccc(Cl)nc1NC(C)C [Example 112, 6-Chloro-2-(isopropylamino)-N-(2-methylbut-3-yn-2-yl)nicotinamide] | 3400
C#CC(C)(C)NC(=O)c1ccc(Cl)nc1NCC [Example 113, 6-Chloro-2-(ethylamino)-N-(2-methylbut-3-yn-2-yl)nicotinamide] | 7200
C#CC(C)(C)NC(=O)c1ccc(C(F)(F)F)nc1NCC1CCOCC1 [Example 116, N-(2-Methylbut-3-yn-2-yl)-2-((tetrahydro-2H-pyran-4-yl)methyl-amino)-6-(trifluoromethyl)nicotinamide] | 1600
C#CC(C)(C)NC(=O)c1cnc(C(F)(F)F)nc1NC(C)C [Example 110, 4-(Isopropylamino)-N-(2-methylbut-3-yn-2-yl)-2-(trifluoromethyl)-pyrimidine-5-carboxamide] | 12000
C#CC(CC)(CC)NC(=O)c1cc(F)ccc1NCC [Example 103, 2-(Ethylamino)-N-(3-ethylpent-1-yn-3-yl)-5-fluorobenzamide] | 1800
C#CC(C)(C)NC(=O)c1ccccc1NCCC(F)(F)F [Example 79, N-(2-Methylbut-3-yn-2-yl)-2-(3,3,3-trifluoropropylamino)benzamide] | 1800
C#CC(C)(C)NC(=O)c1cc(F)cnc1NC1CCC1 [Example 25, 2-(Cyclobutylamino)-5-fluoro-N-(2-methylbut-3-yn-2-yl)nicotinamide] | 3000
C#CC(C)(C)NC(=O)c1cccnc1Nc1cc(F)cc(OC)c1 [Example 165, 2-(3-Fluoro-5-methoxyphenylamino)-N-(2-methylbut-3-yn-2-yl)nicotinamide] | 4000
C#CC(C)(C)NC(=O)c1cc(C(F)(F)F)ccc1NCC(F)(F)C(F)(F)F [Example 18, N-(2-Methylbut-3-yn-2-yl)-2-(2,2,3,3,3-pentafluoropropylamino)-5-(trifluoromethyl)benzamide] | 300
C#CC(C)(C)NC(=O)c1cc(OC)ccc1NCCC(F)(F)F [Example 76, 5-Methoxy-N-(2-methylbut-3-yn-2-yl)-2-(3,3,3-trifluoropropyl-amino)benzamide] | 4700
C#CC(C)(CC)NC(=O)c1cc(F)cnc1Nc1ccc(F)cc1 (stereo not drawn) [Example 171, 5-Fluoro-2-(4-fluorophenylamino)-N-(3-methylpent-1-yn-3-yl)nicotinamide] | 300
C#CC(C)(C)NC(=O)c1ccc(C(F)(F)F)nc1NCC(C)C [Example 105] | 700
C#CC(C)(C)NC(=O)c1cc(Cl)cnc1NCCOC(C)(C)C [Example 147, 2-(2-tert-Butoxyethylamino)-5-chloro-N-(2-methylbut-3-yn-2-yl)nicotinamide] | 5200
C#CC(C)(CC)NC(=O)c1cccnc1NC1CCC(F)(F)CC1 (stereo not drawn) [Example 191, 2-(4,4-Difluorocyclohexylamino)-N-(3-methylpent-1-yn-3-yl)nicotinamide] | 600
C#CC(C)(C)NC(=O)c1ccc(C(F)(F)F)nc1NCC [Example 107, 2-(Ethylamino)-N-(2-methylbut-3-yn-2-yl)-6-(trifluoromethyl)-nicotinamide] | 3700
C#CC(C)(C)NC(=O)c1cc(C(F)(F)F)cnc1NC1CC(F)(F)C1 [Example 141, 2-(3,3-Difluorocyclobutylamino)-N-(2-methylbut-3-yn-2-yl)-5-(trifluoromethyl)nicotinamide] | 300
C#CC(C)(C)NC(=O)c1cc(SC)ccc1NCCC(F)(F)F [Example 78, N-(2-Methylbut-3-yn-2-yl)-5-(methylthio)-2-(3,3,3-trifluoropropyl-amino)benzamide] | 800
C#CC(C)(C)NC(=O)c1cc(Cl)cnc1Nc1cccnc1 [Example 138, 5-Chloro-N-(2-methylbut-3-yn-2-yl)-2-(pyridin-3-ylamino)nicotinamide] | 12000
C#CC(C)(C)NC(=O)c1ccc(C(F)(F)F)nc1NC(C)C [Example 106, 2-(Isopropylamino)-N-(2-methylbut-3-yn-2-yl)-6-(trifluoromethyl)-nicotinamide] | 1300
C#CC(C)(C)NC(=O)c1cc(C#N)ccc1NC1CCC1 [Example 36, 5-Cyano-2-(cyclobutylamino)-N-(2-methylbut-3-yn-2-yl)benzamide] | 4200
C#CC(C)(C)NC(=O)c1cc(F)c(F)cc1NCCCC [Example 42, 2-(Butylamino)-4,5-difluoro-N-(2-methylbut-3-yn-2-yl)benzamide] | 500
C#CC(C)(C)NC(=O)c1cc(F)cnc1Nc1ccccc1 [Example 160, 5-Fluoro-N-(2-methylbut-3-yn-2-yl)-2-(phenylamino)nicotinamide] | 1400
C#CC(C)(CC)NC(=O)c1cccnc1Nc1ccc(F)c(C#N)c1 (stereo not drawn) [Example 182, 2-(3-Cyano-4-fluorophenylamino)-N-(3-methylpent-1-yn-3-yl)nicotinamide] | 500
C#CC(C)(CC)NC(=O)c1cccnc1Nc1cc(F)cc(C#N)c1 (stereo not drawn) [Example 187, 2-(3-Cyano-5-fluorophenylamino)-N-(3-methylpent-1-yn-3-yl)nicotinamide] | 400

Continued, values first:

IC50 [nM] | SMILES
300 | C#CC(C)(CC)NC(=O)c1cc(Cl)cnc1NC1CC(F)(F)C1 (stereo not drawn) [Example 177, 5-Chloro-2-(3,3-difluorocyclobutylamino)-N-(3-methylpent-1-yn-3-yl)nicotinamide]
500 | C#CC(C)(C)NC(=O)c1cc(Br)ccc1NCCC [Example 124, 5-Bromo-NV-(2-methylbut-3-yn-2-yl)-2-(propylamino)benzamide]
1300 | C#CC(C)(C)NC(=O)c1cc(F)ccc1NC1CCC1 [Example 24, 2-(Cyclobutylamino)-5-fluoro-N-(2-methylbut-3-yn-2-yl)benzamide]
1300 | C#CC(C)(C)NC(=O)c1cncnc1Nc1ccc(C(F)(F)F)cc1 [Example 161, N-(2-Methylbut-3-yn-2-yl)-4-(4-(trifluoromethyl)phenylamino)-pyrimidine-5-carboxamide]
900 | C#CC(C)(CC)NC(=O)c1cc(F)cnc1Nc1cccc(C#N)c1 (stereo not drawn) [Example 178, 2-(3-Cyanophenylamino)-5-fluoro-N-(3-methylpent-1-yn-3-yl)nicotinamide]
14200 | C#CC(C)(C)NC(=O)c1cc(OC)c(OC)cc1NCC(C)C [Example 88, 2-(Isobutylamino)-4,5-dimethoxy-N-(2-methylbut-3-yn-2-yl)benzamide]
300 | C#CC(C)(C)NC(=O)c1cc(C(F)(F)F)cnc1NCCC(F)(F)F [Example 2, N-(2-Methylbut-3-yn-2-yl)-5-(trifluoromethyl)-2-(3,3,3-trifluoropropylamino) nicotinamide]
5200 | C#CC(C)(C)NC(=O)c1cccc(F)c1NC1CCC1 [Example 21, 2-(Cyclobutylamino)-3-fluoro-N-(2-methylbut-3-yin-2-yl)benzamide]
8300 | C#CC(CC)(CC)NC(=O)c1cccc2c1NCCC2 [Example 120, N-(3-Ethylpent-1-yn-3-yl)-1,2,3,4-tetrahydroquinoline-8-carboxamide]
600 | C#CC(C)(NC(=O)c1cc(F)c(F)cc1NCC)C(C)C (stereo not drawn) [Example 87, N-(3,4-Dimethylpent-1-yn-3-yl)-2-(ethylamino)-4,5-difluorobenzamide]
1400 | C#CC(C)(CC)NC(=O)c1cccnc1Nc1cc(OC)ccc1F (stereo not drawn) [Example 180, 2-(2-Fluoro-5-methoxyphenylamino)-N-(3-methylpent-1-yn-3-yl)nicotinamide]
1200 | C#CC(C)(C)NC(=O)c1cc(C(F)(F)F)cnc1NC(C)C [Example 28, 2-(Isopropylamino)-N-(2-methylbut-3-yn-2-yl)-5-(trifluoromethyl)-nicotinamide]
11200 | C#CC(C)(C)NC(=O)c1cc2c(cc1NCC(C)C)OCCO2 [Example 9, 7-(Isobutylamino)-N-(2-methylbut-3-yn-2-yl)-2,3-dihydrobenzo[b][1,4]dioxine-6-carboxamide]
500 | C#CC(C)(C)NC(=O)c1cccnc1Nc1cc(F)cc(F)c1 [Example 151, 2-(3,5-Difluorophenylamino)-N-(2-methylbut-3-yn-2-yl)nicotinamide]
7200 | C#CC(C)(C)NC(=O)c1cc(F)ccc1NCC(F)(F)F [Example 22, 5-Fluoro-N-(2-methylbut-3-yn-2-yl)-2-(2,2,2-trifluoroethylamino)-benzamide]
1100 | C#CC(C)(C)NC(=O)c1cc(F)ccc1NCCCC [Example 49, 2-(Butylamino)-5-fluoro-N-(2-methylbut-3-yn-2-yl)benzamide]
1200 | C#CC(C)(C)NC(=O)c1cc(F)cnc1NCCC(C)C [Example 52, 5-Fluoro-2-(isopentylamino)-N-(2-methylbut-3-yn-2-yl)nicotinamide]
400 | C#CC(C)(CC)NC(=O)c1cccnc1Nc1ccccc1 (stereo not drawn) [Example 190, N-(3-Methylpent-1-yn-3-yl)-2-(phenylamino)nicotinamide]
300 | C#CC(C)(NC(=O)c1cc(F)c(F)cc1NCC(C)C)C(C)C (stereo not drawn) [Example 69, N-(3,4-Dimethylpent-1-yn-3-yl)-4,5-difluoro-2-(isobutylamino)-benzamide]
5100 | C#CC(C)(C)NC(=O)c1cc(Cl)ccc1NCC(F)F [Example 5, 5-Chloro-2-(2,2-difluoroethylamino)-N-(2-methylbut-3-yn-2-yl)benzamide]
700 | C#CC(C)(C)NC(=O)c1cc(F)cnc1Nc1ccc(F)cc1 [Example 157, 5-Fluoro-2-(4-fluorophenylamino)-N-(2-methylbut-3-yn-2-yl)nicotinamide]
2900 | C#CC(C)(C)NC(=O)c1cc(C)ccc1NCC(F)(F)F [Example 40, 5-Methyl-N-(2-methylbut-3-yn-2-yl)-2-(2,2,2-trifluoroethylamino)-benzamide]
